The record followed here is paper PMC12107143, “MALT1 inhibitor MI-2 induces ferroptosis by direct targeting of GPX4” (Proceedings of the National Academy of Sciences of the …, 2025).

The target in the test is T1, MALT1 (Homo sapiens, UniProt Q9UDY8).
T1 construct: GST-MALT1 (aa 325–760)
T1 sequence (Q9UDY8 325-760): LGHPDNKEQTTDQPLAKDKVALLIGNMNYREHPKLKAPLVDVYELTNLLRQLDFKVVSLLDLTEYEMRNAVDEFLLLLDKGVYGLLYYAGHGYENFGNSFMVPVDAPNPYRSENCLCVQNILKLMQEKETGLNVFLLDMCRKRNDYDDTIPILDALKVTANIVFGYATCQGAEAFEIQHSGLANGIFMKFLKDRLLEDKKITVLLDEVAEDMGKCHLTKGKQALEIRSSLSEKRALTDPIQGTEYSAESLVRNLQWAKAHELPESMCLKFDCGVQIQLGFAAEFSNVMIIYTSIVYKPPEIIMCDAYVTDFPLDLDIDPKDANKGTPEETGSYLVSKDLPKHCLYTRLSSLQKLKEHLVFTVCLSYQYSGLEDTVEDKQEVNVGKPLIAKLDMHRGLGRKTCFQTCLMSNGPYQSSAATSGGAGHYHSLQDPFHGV
The experiment in a line: recombinant GST-MALT1 protease assay with fluorescence substrate Ac-LRSR-AMC. Format: biochemical.

As a reminder, the IC50 is the concentration that inhibits the measured activity by half. As for `COCCOc1nc(-c2ccc(Cl)c(Cl)c2)n(-c2ccc(NC(=O)CCl)cc2)n1` [MI-2], the IC50 is 2100 nM.
